# Values of other authors as cited in patent publication US10040838B2, “CRHR2 peptide agonists and uses thereof” (JANSSEN PHARMACEUTICA NV, priority 2008, dated 2018).
# No end group written: not given here.
# Molecular target: T1, h-CRHR1 (Homo sapiens, UniProt P34998)
# T1 sequence (P34998 24-415): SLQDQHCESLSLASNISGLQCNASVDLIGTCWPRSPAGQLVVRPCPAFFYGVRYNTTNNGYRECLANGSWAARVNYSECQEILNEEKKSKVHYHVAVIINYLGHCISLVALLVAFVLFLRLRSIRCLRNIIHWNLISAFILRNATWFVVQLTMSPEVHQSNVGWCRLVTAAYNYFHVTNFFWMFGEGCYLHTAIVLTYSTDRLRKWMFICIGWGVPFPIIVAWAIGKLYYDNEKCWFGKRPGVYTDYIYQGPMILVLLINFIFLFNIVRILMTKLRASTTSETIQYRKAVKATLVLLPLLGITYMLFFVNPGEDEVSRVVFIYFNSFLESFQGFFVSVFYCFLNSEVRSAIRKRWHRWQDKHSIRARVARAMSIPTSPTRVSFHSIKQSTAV
# Settings: h-CRHR1 transfected HEK-293 cells, approximated from concentration response curves, Hsu et al. 2001; cited from earlier work
substance,measurement,value
"HPGSRIVLSLDVPIGLLQILLEQARARAAREQATTNARILARV-NH2 [SEQ ID NO: 117, HPGSRIVLSLDVPIGLLQILLEQARAPAAREQATTNARILARV-NH2, reference compound]",Published pA50,>7^3
